In PubChem BioAssay AID1626 (SRMLSC, 2009):

Test system: M. tuberculosis H37Rv growth inhibition
Experiment: M. tuberculosis H37Rv growth inhibitors, H37Rv strain (AID 1626)
Conditions: for IC90: measured here: IC90 against H37Rv; for CC50: measured here: Vero cell cytotoxicity

COc1ccc(CNc2nc3nc4c(c(=O)n3[nH]2)CCC4)cc1
IC50: 1.09 µM | IC90: > 100 µM

Cc1cccc(-c2nsc(SCC(=O)NCc3ccc4c(c3)OCO4)n2)c1
IC50: 7.57 µM | IC90: > 100 µM

Nc1nc(-c2cccc(Br)c2)cs1
IC50: 23.8 µM | IC90: > 100 µM

COc1ccc(O)c(C(=O)CC(=O)c2ccccc2C)c1
IC50: 17.2 µM | IC90: > 100 µM | CC50: 17.1 µM

O=C(Cc1cccs1)N1CCN=C1SCc1ccc(Br)cc1
IC90: > 100 µM

O=C(/C=C/c1ccc(-c2ccc(F)cc2)o1)N1CCCC1
IC50: 14 µM | IC90: > 100 µM

CC1CCN(c2nc(-c3cccnc3)nc3scc(-c4ccccc4)c23)CC1
IC50: 5.94 µM | IC90: 65.3 µM

Cc1ccc2nc(N(CCCN(C)C)C(=O)c3ccc4c(c3)CCCC4)sc2c1
IC50: 8.72 µM | IC90: 11.8 µM | CC50: 22.6 µM

COc1ccc(CNC[C@@H](CCCCN(C)Cc2ccc(OC)cc2)N2C[C@H](c3ccccc3)N(CCc3ccc(Cl)c(Cl)c3)C(=O)C2=O)cc1
IC50: 12.2 µM | IC90: 19.2 µM | CC50: 11.5 µM

COc1ccc(NC(C#N)c2ccccc2OCc2ccccc2)cc1 (stereo not drawn)
IC50: 69.8 µM | IC90: > 100 µM

C#CCOCCOCCOCCNc1nc(N2CCN(C(=O)[C@H](Cc3cc4ccccc4[nH]3)n3cc([C@@H](N)CC(C)C)nn3)CC2)nc(N2CCN(C(=O)[C@H](Cc3cc4ccccc4[nH]3)n3cc([C@@H](N)CC(C)C)nn3)CC2)n1
IC50: 4.23 µM | IC90: 7.58 µM

O=[N+]([O-])c1ncccc1Oc1nc(-c2cccnc2)nc2ccccc12
IC50: 7.07 µM | IC90: > 100 µM

CC1CC1C(=O)Nc1nc(-c2ccccn2)cs1 (stereo not drawn)
IC50: 2.13 µM | IC90: 4.75 µM | CC50: 25.9 µM

Cc1ccc(Cl)cc1NC1=C/C(=N\S(=O)(=O)c2cccs2)c2ccccc2C1=O
IC50: 1.91 µM | IC90: 3.21 µM | CC50: 5.83 µM

COc1cc2c(cc1NCc1ccc3c(c1)OCO3)oc1ccccc12
IC50: 89.1 µM | IC90: > 100 µM

CC1(C)CC(NC(=O)c2sc3cc(Cl)ccc3c2Cl)CC(C)(C)N1
IC90: > 100 µM | CC50: 12.6 µM

COc1cccc2sc(Nc3nnc(-c4ccc(F)cc4)o3)nc12
IC50: 9.19 µM | IC90: 11.8 µM | CC50: 16 µM

Cc1cccc(-c2ncc(CN3CCC(CO)(CCCc4ccccc4)CC3)cn2)c1
IC50: 13.2 µM | IC90: 40.7 µM | CC50: > 40 µM

N=C1SCC(=O)N1c1ncc(Cc2ccccc2Cl)s1
IC50: < 0.391 µM | IC90: 15.9 µM | CC50: > 40 µM

Brc1ccc(CSc2ncn[nH]2)cc1
IC50: 46.2 µM | IC90: > 100 µM | CC50: > 40 µM

C=CCn1c(COc2ccc3c(c2)CCCC3)nnc1SCC(=O)Nc1cccc(SC)c1
IC90: > 100 µM

CCOC(=O)N1CCN=C1SCc1ccc(C(F)(F)F)cc1
IC90: > 100 µM

COc1ccc(C[C@H]2CN3C(=NC[C@@H]3Cc3ccc(O)cc3)N2CCNC(=O)c2ccc(C)c(Br)c2)cc1
IC50: 4.4 µM | IC90: 6.16 µM | CC50: > 40 µM

Oc1c(Cl)cc(Cl)c2cccnc12
IC50: 0.779 µM | IC90: 0.858 µM | CC50: 11.9 µM

Cc1ccc(N=Nc2ccc(O)c3ncccc23)cc1C
IC50: 14.1 µM | IC90: > 100 µM | CC50: 3.1 µM

CCOc1ccc(OCC)c(NC(=O)CN2CCN(c3cc(C)ccc3C)CC2)c1
IC90: > 100 µM | CC50: > 40 µM

c1nc2n(n1)C1=C(CCCC1)C1(CCCCC1)N2
IC50: 18.2 µM | IC90: > 100 µM

COc1ccc(N=C2NN=C(c3c(C)[nH]c4ccccc34)CS2)cc1
IC50: 39 µM | IC90: > 100 µM | CC50: 29.6 µM

Cc1ccc2nc(Cl)c3nnnn3c2c1
IC50: 11.9 µM | IC90: 17 µM | CC50: > 40 µM

O=C(COC(=O)Cc1ccccc1F)Nc1ccc2c(c1)OCO2
IC90: > 100 µM

CCCCCC(=O)c1ccc(O)cc1O
IC50: 63.3 µM | IC90: > 100 µM

Cn1c(C(C#N)C(=O)c2ccco2)nc2ccccc21 (stereo not drawn)
IC50: 6.99 µM | IC90: > 100 µM

CC(C)N=c1cc2n(-c3ccc(Cl)cc3)c3ccccc3nc-2cc1Nc1ccc(Cl)cc1
IC50: < 0.391 µM | IC90: < 0.391 µM | CC50: > 40 µM

CCOC(=O)c1cc(COc2cc(Cl)cc(Cl)c2)on1
IC50: 3.01 µM | IC90: 21.6 µM

CCSc1nnc(NC(=O)c2ccccn2)s1
IC50: 0.315 µM | IC90: 0.466 µM | CC50: 8.14 µM

CCCCCCCCCCNC(=O)C(=O)Nc1ccccn1
IC50: 6.97 µM | IC90: > 100 µM

Cc1cccc(-n2c(/C=C/c3ccc([N+](=O)[O-])o3)nc3ccccc3c2=O)c1
IC90: > 100 µM | CC50: 28.7 µM

CSc1ccc(C(=O)C2CCCN(Cc3cc4ccccc4[nH]3)C2)cc1 (stereo not drawn)
IC50: 2.43 µM | IC90: 2.98 µM | CC50: > 40 µM

Cc1ccc2nc(/C(C#N)=C\c3ccc(OC(=O)c4cccs4)cc3)[nH]c2c1
IC50: 20.4 µM | IC90: > 100 µM | CC50: 22.9 µM

CCOC(=O)c1nc2sc3c(c2c(=O)[nH]1)CCC(C)C3 (stereo not drawn)
IC50: 10.4 µM | IC90: > 100 µM

O=C1CC(/C=C/c2ccc(Cl)cc2)=Nc2ccccc2N1
IC50: 6.69 µM | IC90: > 100 µM | CC50: 38.6 µM

Cn1c(O)c(C(=Nc2ccccc2)SCc2ccc(Cl)cc2)c(=O)n(C)c1=O
IC50: 5.61 µM | IC90: 6.41 µM | CC50: 21.2 µM

CCOc1ccc(NC(C(=O)Nc2cccc(C(C)=O)c2)c2ccccc2)cc1 (stereo not drawn)
IC90: > 100 µM

Cc1cc(N)c2cc(NC(=O)/C=C/c3ccccc3Cl)ccc2n1
IC50: 1.68 µM | IC90: 2.84 µM | CC50: 1.76 µM

Cc1nc2ccccc2n1/N=C/c1ccc([N+](=O)[O-])s1
IC50: < 0.195 µM | IC90: < 0.195 µM | CC50: 5.49 µM

NC1CCN(c2c(F)cc3c(=O)c(C(=O)O)cn(C4CC4)c3c2Cl)C1 (stereo not drawn)
IC50: < 0.391 µM | IC90: < 0.391 µM

O=c1c2ccccc2c(C=NC2CCN(Cc3ccccc3)CC2)c(O)n1Cc1ccc2c(c1)OCO2
IC50: 6.36 µM | IC90: 12.2 µM | CC50: > 40 µM

CCOC(=O)/C=C/C(=O)Nc1nccs1
IC90: > 100 µM

CCCSc1cc(N2CCN(C)CC2)nc(-c2ccc(OC)cc2)n1
IC50: 10.9 µM | IC90: 12.2 µM | CC50: > 40 µM

CCOC(=O)COc1ccc2c(=O)cc(-c3ccccc3)oc2c1
IC50: < 0.195 µM | IC90: 0.963 µM

COc1cnc(-c2ccccn2)nc1Oc1c(C)cccc1C
IC50: 5.19 µM | IC90: 14.7 µM | CC50: 19.8 µM

N=C1S/C(=C\c2ccc(-c3cccc(Cl)c3)o2)C(=O)N1c1nccs1
IC50: < 0.195 µM | IC90: 13.9 µM | CC50: 5.77 µM

Cc1ccc(CNC(=O)c2ccc([N+](=O)[O-])o2)cc1
IC50: < 0.391 µM | IC90: 2.89 µM | CC50: 8.28 µM

O=C(Nc1nnc(-c2ccc(Cl)cc2)o1)C1=COCCO1
IC50: 6.4 µM | IC90: 11.4 µM | CC50: > 40 µM

CCn1ccnc1CN(C)Cc1cn(-c2ccc(C)cc2)nc1-c1cccc(C)c1
IC50: 2.73 µM | IC90: 3.64 µM | CC50: > 40 µM

Cc1cc(C)c2nc(/N=C(\N)NC(=O)Nc3ccccc3)nc(C)c2c1
IC50: 4.02 µM | IC90: 5.93 µM | CC50: > 40 µM

COc1ccc(N/C=C2\CCOC2=O)cc1
IC90: > 100 µM

CC(=O)Nc1ccc(Nc2cc(C(C)C)nc3c(-c4ccccc4)c(C)nn23)cc1
IC50: 5.08 µM | IC90: 9 µM | CC50: > 40 µM

CC(C)c1c(O)nc(SCC(=O)Nc2ccc3c(c2)CCC3)[nH]c1=O
IC50: 32.8 µM | IC90: > 100 µM

CN(C)c1ccc(O)c2c1CC1CC3C(N(C)C)C(=O)C(C(N)=O)=C(O)[C@@]3(O)C(=O)C1=C2O (stereo partly drawn)
IC50: 3.33 µM | IC90: 7.59 µM | CC50: > 40 µM

Cc1cc(=O)[nH]c(-n2nc(C)cc2C)n1
IC50: 1.42 µM | IC90: 2.43 µM | CC50: > 40 µM

O=c1[nH][nH]cc1C=Nc1ccc(Oc2ccccc2)cc1
IC50: 15.4 µM | IC90: > 100 µM

COc1cc(CNc2ccc3c(c2)CCC3)cc(OC)c1O
IC50: 46.4 µM | IC90: > 100 µM

C#CCOCCOCCOCCNc1nc(N2CCN(C(=O)[C@H](Cc3ccc(O)cc3)n3cc([C@@H](N)C(C)CC)nn3)CC2)nc(N2CCN(C(=O)[C@H](Cc3cc4ccccc4[nH]3)n3cc([C@@H](N)CC(C)C)nn3)CC2)n1 (stereo partly drawn)
IC50: 7.36 µM | IC90: 21.5 µM

Cc1ccc(Sc2ccc(C=C3C(=O)N(C)C(=O)N(C)C3=O)o2)cc1
IC50: 7.56 µM | IC90: 20.8 µM

O=C(/C=C/Nc1ccc(Oc2ccccc2Cl)cc1)c1ccco1
IC90: > 100 µM | CC50: > 40 µM

O=C(Nc1nnc(-c2ccc(Cl)cc2)o1)c1ccccc1Br
IC50: 1.12 µM | IC90: 3.35 µM | CC50: > 40 µM

CCOC(=O)c1ccc(N=CC2=C(O)CC(C)(C)CC2=O)cc1
IC50: 1.35 µM | IC90: > 100 µM

CN(C)CCCNc1cc(C(C)(C)C)nc2c(-c3ccccc3)cnn12
IC50: 3.17 µM | IC90: 4.9 µM | CC50: 9.79 µM

C#CCOCCOCCOCCNc1nc(N2CCN(C(=O)[C@H](Cc3ccc(O)cc3)n3cc([C@@H](N)CC(C)C)nn3)CC2)nc(N2CCN(C(=O)[C@H](Cc3cc4ccccc4[nH]3)n3cc([C@@H](N)CC(C)C)nn3)CC2)n1
IC50: 11.7 µM | IC90: 16.7 µM

CCOC(=O)c1sc(NC(=O)CNCc2ccccn2)c(C(=O)OCC)c1C
IC50: 2.77 µM | IC90: 4.22 µM | CC50: > 40 µM

COc1ccc(-c2cc(C(F)(F)F)n3ncc(C(=O)N4CCCCC4c4cccnc4)c3n2)cc1 (stereo not drawn)
IC90: > 100 µM

CC(=O)Nc1cccc(C(=O)/C=C/c2ccc(C)cc2)c1
IC50: 33.7 µM | IC90: > 100 µM | CC50: 13.7 µM

O=C(Nc1ccccc1Cl)Oc1ccc(-c2ccccc2)cc1
IC50: 59.5 µM | IC90: > 100 µM | CC50: > 40 µM

CCOc1ccc2nc(NC(=O)CSc3nnnn3C3CCCCC3)sc2c1
IC50: 56.4 µM | IC90: > 100 µM

NC(=O)c1ccc(NC(=O)COC(=O)c2c3c(nc4ccccc24)/C(=C\c2cccs2)CCC3)cc1
IC50: 0.572 µM | IC90: 9.77 µM | CC50: 7.95 µM

CC(C)(C)c1ccc(C(=O)/C=C2\NC(=O)CS2)cc1
IC50: 11.8 µM | IC90: > 100 µM | CC50: > 40 µM

Oc1cccc2ccc(/C=C/c3c(F)cccc3Cl)nc12
IC50: 1.37 µM | IC90: 6.64 µM | CC50: > 40 µM

O/N=C/c1ccc2ccccc2c1
IC90: > 100 µM

COc1ccc(Cn2c(SCc3cc(C)ccc3C)nc3cc(OC)c(OC)cc3c2=N)cc1
IC50: 2.59 µM | IC90: 2.83 µM | CC50: 7.51 µM
